According to US20030194738A1, “Antisense oligonucleotide compositions and methods for the modulation of activating protein 1” (priority 1997, published 2003):

Assays:
Assay type in all cases: cell-based
[1] = system: rat aortic smooth muscle (RASM) cells; experiment: Cell cycle progression of PDGF-stimulated rat aortic smooth muscle cells, FACS analysis; conditions: 200 nM; 24 hours after PDGF
Experimental: (§1) In order to evaluate the effect of AP-1 modulation on cell cycle progression, the following study was performed. Cultured rat aortic smooth muscle (RASM) cells are stimulated to proliferate upon contact with platelet-derived growth factor (PDGF). Primary RASM cells (passages 6-8) were synchronized by incubation for 48 hours in DMEM containing 0.1% FBS. The cells were treated for 4 hours with 200 nM ISIS 12633 (SEQ ID NO:78), a 20-mer phosphorothioate oligonucleotide complementary to a portion of the 3′ UTR of rat c-jun mRNA, or ISIS 12898 (SEQ ID NO:92), a scrambled control of ISIS 12633. Cells were then contacted with PDGF (10 ng/ml) (R&D Systems, Minneapolis, Minn.), and cell cycle progression was assessed by FACS analysis 24 hours later. At 2 and 6 hours after exposure to PDGF, c-jun mRNA levels were markedly less in ISIS 12633-treated cells as compared to untreated cells or cells treated with ISIS 12898.

rat c-jun mRNA = experiment: Rat c-jun mRNA expression in rat A10 cells
Experimental: Tables 13 and 14 show the sequences of oligonucleotides designed to modulate rat c-jun and c-fos mRNA expression, respectively. For the nucleotide sequence of the rat c-jun gene, see Genbank accession No. X17163/RSJUNAP1 and Saaki et al., Cancer Res., 1989, 49:5633. The nucleotide sequence of the rat c-fos gene is described in Genbank accession No. X06769/RNCFOSR and Curran et al., Oncogene, 1987, 2:79. Oligonucleotide activities were evaluated as described infra in Example 2 et seq. with the exception that rat A10 cells (available from, inter alia, the American Type Culture Collection, Rockville, Md., as ATCC No. CRL-1476) were used instead of human A549 cells. Due to the high degree of homology between human and rat c-jun and c-fos nucleotide sequences, probes derived from the human genes were used to detect the rat messages.
Another preferred oligonucleotide targeted to rat AP-1 subunits is ISIS 12635 (SEQ ID NO:80).

c-jun mRNA = c-jun mRNA levels in PDGF-stimulated rat aortic smooth muscle cells; conditions: 200 nM for 4 hours; 2 and 6 hours after exposure to PDGF (10 ng/ml); versus untreated or ISIS 12898-treated cells
Experimental: as §1

“TTT-TCT-TCC-ACT-GCC-CCT-CA (TTTTCTTCCACTGCCCCTCA; DNA, all phosphorothioate, methylation of C not given here) [ISIS 12633]” was tested, and the “proportion of cells in the G2/M interface (in words)” value [1] was “significant decrease”, the “modulation of rat c-jun (in words)” value (rat c-jun mRNA) was “active modulator” and the “c-jun mRNA levels (in words)” value (c-jun mRNA) was “markedly less”.
